The target in data set [1] is T1, TLR7 (Homo sapiens, UniProt Q9NYK1).
T1 construct: expressed in transfected cells; host or cells: HEK293
T1 sequence (Q9NYK1 27-1049): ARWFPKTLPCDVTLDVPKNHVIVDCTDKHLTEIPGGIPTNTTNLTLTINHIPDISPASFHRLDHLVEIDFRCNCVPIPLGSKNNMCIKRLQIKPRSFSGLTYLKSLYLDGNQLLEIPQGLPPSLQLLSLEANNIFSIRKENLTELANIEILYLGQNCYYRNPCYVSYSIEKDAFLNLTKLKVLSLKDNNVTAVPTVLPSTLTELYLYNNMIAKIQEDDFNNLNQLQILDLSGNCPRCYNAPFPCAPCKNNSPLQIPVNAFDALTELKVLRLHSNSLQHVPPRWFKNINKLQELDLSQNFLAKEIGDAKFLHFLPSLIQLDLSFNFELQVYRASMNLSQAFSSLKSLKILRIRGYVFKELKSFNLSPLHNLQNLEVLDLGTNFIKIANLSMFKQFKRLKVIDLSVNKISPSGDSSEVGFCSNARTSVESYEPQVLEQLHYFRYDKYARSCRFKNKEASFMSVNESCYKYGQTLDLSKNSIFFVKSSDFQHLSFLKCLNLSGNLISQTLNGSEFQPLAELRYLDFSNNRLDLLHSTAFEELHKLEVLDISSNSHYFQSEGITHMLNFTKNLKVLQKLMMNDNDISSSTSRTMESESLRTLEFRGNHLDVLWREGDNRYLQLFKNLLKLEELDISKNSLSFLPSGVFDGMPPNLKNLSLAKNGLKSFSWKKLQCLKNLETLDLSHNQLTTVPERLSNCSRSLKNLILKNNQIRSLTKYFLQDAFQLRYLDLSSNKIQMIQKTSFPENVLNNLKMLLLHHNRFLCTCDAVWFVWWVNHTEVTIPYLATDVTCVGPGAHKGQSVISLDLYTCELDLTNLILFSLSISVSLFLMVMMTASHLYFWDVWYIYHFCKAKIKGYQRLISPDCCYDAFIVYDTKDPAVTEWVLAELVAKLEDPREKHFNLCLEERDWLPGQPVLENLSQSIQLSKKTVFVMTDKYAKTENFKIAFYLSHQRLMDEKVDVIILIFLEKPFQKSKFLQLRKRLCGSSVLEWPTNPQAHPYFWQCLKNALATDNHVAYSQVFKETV
The following applies: TLR7-transfected HEK293 cells; cited from earlier work.

The target in data set [2] is T2, TLR8 (Homo sapiens, UniProt Q9NR97).
T2 construct: expressed in transfected cells; host or cells: HEK293
T2 sequence (Q9NR97 27-1041): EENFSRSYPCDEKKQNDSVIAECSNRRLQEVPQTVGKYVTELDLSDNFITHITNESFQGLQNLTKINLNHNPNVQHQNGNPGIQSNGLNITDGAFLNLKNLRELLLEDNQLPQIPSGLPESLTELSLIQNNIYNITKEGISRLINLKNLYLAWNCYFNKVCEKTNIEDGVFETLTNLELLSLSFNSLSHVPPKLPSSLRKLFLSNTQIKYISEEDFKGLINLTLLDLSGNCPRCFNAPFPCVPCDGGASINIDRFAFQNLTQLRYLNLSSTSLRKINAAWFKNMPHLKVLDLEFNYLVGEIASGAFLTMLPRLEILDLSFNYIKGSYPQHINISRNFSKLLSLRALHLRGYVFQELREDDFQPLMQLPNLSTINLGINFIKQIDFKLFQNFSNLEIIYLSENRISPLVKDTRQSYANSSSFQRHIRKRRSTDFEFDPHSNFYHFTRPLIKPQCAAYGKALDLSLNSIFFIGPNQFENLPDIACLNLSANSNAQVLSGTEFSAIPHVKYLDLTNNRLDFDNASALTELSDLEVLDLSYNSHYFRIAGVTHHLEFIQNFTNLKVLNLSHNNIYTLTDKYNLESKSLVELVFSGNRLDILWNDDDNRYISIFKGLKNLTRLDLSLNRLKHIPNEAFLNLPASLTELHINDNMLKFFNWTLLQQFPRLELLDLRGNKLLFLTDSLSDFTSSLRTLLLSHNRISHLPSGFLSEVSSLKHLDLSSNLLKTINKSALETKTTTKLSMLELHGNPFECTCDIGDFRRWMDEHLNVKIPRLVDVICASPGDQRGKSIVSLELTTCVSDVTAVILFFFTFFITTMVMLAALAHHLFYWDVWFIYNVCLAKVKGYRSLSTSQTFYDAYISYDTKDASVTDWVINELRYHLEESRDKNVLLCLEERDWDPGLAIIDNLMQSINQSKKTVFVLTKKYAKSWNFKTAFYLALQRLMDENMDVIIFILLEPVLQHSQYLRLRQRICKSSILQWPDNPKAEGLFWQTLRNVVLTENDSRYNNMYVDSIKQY
Particulars: cited from earlier work.

Data set [3] addresses T1, TLR7. Particulars: cited from earlier work.
Data set [4] is described as follows: In vivo release study (fluorescence IVIS imaging). On the set-up: species or system non-tumor-bearing mice. Particulars: mouse, in vivo. The source says: To evaluate the in vivo release profiles of Cy7 carboxylic acid (a model compound for R848), anti-PD-1, IL-15sa, and 2′3′-cGAMP, hydrogels containing the fluorophore or one of the fluorescently labeled payloads were surgically implanted into non-tumor-bearing mice.
The loading and release properties of the hydrogel were examined in additional experiments. […] It was then confirmed that the hydrogel extends the release of the small molecules and biologics in vivo. Cy7 carboxylic acid (Cy7-CA) was used as a model small molecule payload, as its physical properties are very similar to those of resiquimod (R848). Cy7-CA was administered to non-tumor-bearing mice, either in solution or loaded in a scaffold placed by the fourth mammary fat pad. The mice were assessed by fluorescence IVIS imaging (FIG. 37B), and the data were quantified (FIG. 37C). Whereas a loss of ˜60% of the signal was detected within two hours of administration of the fluorophore in solution, this amount of signal decay required 24 hours for the fluorophore loaded in the hydrogel. Over this time course, there was a […] for the latter group, on average.
To confirm that the hydrogel sustains the release of the small molecule and biologics in vivo, fluorescently labeled versions of 2 ? […]

The test system of data set [5] is 4T1-Luc2 syngeneic breast cancer cells. The following applies: for survival with compromised immune system: NK, CD8+ T or CD4+ T cells depleted or IFNAR1 neutralized; for survival benefit as innate immune activator component: hydrogel with IL-15sa and anti-PD-1 (devices 1, 14-16); for efficacy (tumor recurrence, metastasis, survival), in words: scaffold placed in tumor resection site 10 days after inoculation. The protocol:
Seven-week-old female Balb/c mice were inoculated orthotopically with 100,000 4T1-Luc2 syngeneic breast cancer cells (into the fourth mammary fat pad). After 10 days, the mice were anesthetized, tumors were surgically resected, and compositions were placed in the resection site. […] The order of surgeries avoided systematic error by dividing up the groups. Standard follow-up care (wound clips, analgesic) was provided.
For the metastatic breast cancer model, 10^5 4T1-Luc2 or 4T1 cells (in 30 μl DPBS) were inoculated orthotopically into the fourth mammary pad of mice to generate a local tumor mass. Cells were injected without any incision to expose the fat pad. Mice were randomly assigned to treatment groups, and surgery was performed 10 days after tumor inoculation. For the metastatic melanoma and lung cancer models, 10^6B16-BL6 or 5×10^5 LLC cells (in 100 μl DPBS) were inoculated subcutaneously in mice to generate a local tumor mass. Mice were randomly assigned to treatment groups, and surgery was performed when tumor volumes reached ˜600 mm^3. While mice were kept under anesthesia at 2% isoflurane, the tumor was resected, and the hydrogel was placed in the site of the resultant cavity at the time of surgery. The wound was closed with medical clips. Control experiments were performed in which therapy was administered in solution at the site of surgery, intraperitoneally, or intravenously. For tumor re-challenge experiments, 10^4 4T1-Luc2 cells were inoculated in the contralateral fourth mammary fat pad. The surgeries were performed independently at least three times, and the surgeon was often blinded.
After surgery, mice were inspected weekly for tumor recurrence and distal metastasis by bioluminescence imaging (BLI). To this end, 10 min after intraperitoneal injection of D-luciferin (150 mg/kg), a substrate of Luc2, the mice were anesthetized with 2% isoflurane and imaged using an IVIS Spectrum In Vivo Imaging System (Perkin Elmer).
A series of compositions described above in Table 2 were evaluated in viva. In each group of evaluations, seven-week-old female Balb/c mice were inoculated orthotopically with 100,000 4T1-Luc2 syngeneic breast cancer cells (into the fourth mammary fat pad). After 10 days, mice were anesthetized, tumors were surgically resected, and the composition was placed in the resection site. Tumor relapse and metastasis were monitored via imaging over the course of 6 weeks.
Female BALB/cJ mice were inoculated orthotopically with 4T1-Luc2 breast cancer cells in their fourth mammary fat pad. Nine days later, the mice were imaged by bioluminescent IVIS imaging to confirm that the size of the tumors was consistent across animals to enable randomization into groups. On day 10 post-tumor inoculation, tumors (˜100 mm^3) were resected, and device 1 was placed in the tumor resection site. Controls included no treatment (sham), empty hydrogel (device 8/hydrogel 4), or delivery of the triple combination in solution (S+I+P)—via intraperitoneal injection, intravenous injection, or local administration.

Data set [6] relates to 4T1-Luc2 cells. Put plainly: Non-resected orthotopic 4T1-Luc2 tumors: peritumoral hydrogel or intratumoral injection. Particulars: single intratumoral (IT) injection. The class given is in vivo, mice. The source says:
In certain embodiments, intraoperative placement of the immunotherapy-loaded hydrogel is required for therapeutic benefit.

For data set [7], the system named is 4T1-Luc2 cells. Put plainly: Tumor re-challenge of surviving mice. Particulars: mice with durable survival after loaded hydrogel. The class given is in vivo. The protocol: The wound was closed with medical clips.
To gain insights into the soluble factors that are associated with the activation of innate and adaptive immune cells, the levels of cytokines in peripheral blood were measured. At multiple time points post-surgery, plasma was collected and subsequently analyzed by multiplexing laser bead technology. […] Indeed, the induction of a memory response was confirmed by re-challenging the surviving mice, 100% of which rejected the freshly inoculated 4T1-Luc2 cells (FIG. 94A).

Where “and” joins values, the source holds several entries; their conditions need not be identical. Equal entries are not always repeated.

For `CCCCNc1nc(N)c2nc(O)n(Cc3ccc(C(=O)NCC(=O)O)cc3)c2n1` [CL264], in data set [1], the “activating concentration, times less than imiquimod” value is recorded as 5-10 times and the “concentration inducing NF-κB activation” value is 0.1 µM. Moreover, in data set [2], the “concentration without stimulation of TLR8” value is over 10 µg/mL.

As to `CCCCNc1nc(N)c2nc(O)n(Cc3ccc(C(=O)NCC(=O)NCCCNCCCCNCCCN)cc3)c2n1` [CL307, N1-glycinyl[4-((6-amino-2-(butylamino)-8-hydroxy-9H-purin-9-yl)methyl)benzoyl]spermine], in data set [3], the “concentration inducing robust NF-κB activation” value was ≤ 20 nM and ≤ 10 ng/ml.

For `C[N+]1=C(/C=C/C2=CC(=C/C=C3/N(CCCCCC(=O)O)c4ccccc4C3(C)C)CCC2)C(C)(C)c2ccccc21.[Cl-]` [Cy7-CA, Cy7 carboxylic acid], in data set [4], the “increase in signal, hydrogel vs solution” value is “roughly three”.

Consider `CCOCc1nc2c(N)nc3ccccc3c2n1CC(C)(C)O` [Device R848, resiquimod], for which, in data set [5], the “survival with compromised immune system” value is given as “exhibited reduced survival”; the “survival benefit as innate immune activator component” value is “conferred meaningful benefit”; the “efficacy (tumor recurrence, metastasis, survival), in words” value is given as “prevented most effectively”. Besides, the “survival benefit by mode of administration” value in data set [5] (hydrogel vs solution (weekly IV, weekly IP, local with empty hydrogel)) is given as “survival benefit was observed only when R848 was loaded in the hydrogel”. Besides, the “tolerability (body weight)” value in data set [5] (mouse, in vivo) was “well tolerated”. The survival benefit result in data set [5] (three consecutive daily IP injections (200 μg)) is “failed to confer robust survival benefit”. The survival result in data set [6] is given as “did not prolong survival”. The “surviving mice that rejected / survived re-challenge” value in data set [7] came to 100%.

Take `Cc1cccc(-c2[nH]c(CNc3ccccc3F)nc2-c2ccc3ncnn3c2)n1` [EW7197]: the “efficacy of hydrogel with IL-15 superagonist, anti-PD-1 and the small molecule” value in data set [5] (small molecule dissolved in DMSO) was “provided less efficacious results”.

Regarding `Nc1ncnc2c1ncn2C1O[C@@H]2CO[P@@](=O)([S-])O[C@H]3[C@@H](O)[C@H](n4cnc5c(N)ncnc54)O[C@@H]3CO[P@@](=O)([S-])O[C@@H]1[C@@H]2O.[Na+].[Na+]` (stereo partly shown) [STING-RR, 2′3′-c-di-AM(PS)2 (Rp,Rp)], in data set [5], the “survival with compromised immune system” value is “exhibited reduced survival” and the “efficacy (tumor recurrence, metastasis, survival), in words” value was “prevented most effectively”. Further, the survival entry in data set [6] is reported as “did not prolong survival”. The “surviving mice that rejected / survived re-challenge” value in data set [7] is listed as 100%.

Turning to `CCOC(=O)C1=Cc2ccc(-c3cccc(C#N)c3)cc2N=C(N)C1` [TL8-506], in data set [2] (TLR8-transfected HEK293 cells), the “potency in inducing NF-κB activation relative to CL075” value is listed as about 25 × and the “potency in inducing NF-κB activation relative to R848” value is about 50 ×.

Turning to IL-21: pleiotropic cytokine, the “survival benefit as cytokine component” value in data set [5] (hydrogel with 2′3′-cGAMP and anti-PD-1 (devices 1, 13)) was “had little impact”.

On to “polyinosinic:polycytidylic acid [poly(I:C)]”, for which the “survival benefit as innate immune activator component” value in data set [5] was “had little impact”.
